The source made the active and inactive calls.
Tests used:
[1] = target: Mitochondrial peptide methionine sulfoxide reductase (Bos taurus, UniProt P54149); format: functional;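 note: absorbance read-out, biochemical high-throughput dose-response screen for MsrA inhibitors, confirmatory; recombinant bovine MsrA coupled to E. coli TrxB with NADPH and selenocystamine; potency is for inhibitors of MsrA activity on DMSO substrate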
INS1 = test: beta cell apoptosis inhibitors, cytokine rescue, dose response, luminescence, retest (AID 449756); format: functional, cell-based; conditions: Rattus norvegicus;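 note: cell death triggered by IL-1 beta plus TNF-alpha plus IFN-gamma mixture; protective hits raise ATP signal compared with cytokine alone wells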
[2] = Shn3 3'UTR reporter inhibitors, dose response, cell-based, Clone20 osteoblasts, firefly luciferase, cherry-picked (AID 624132); format: functional;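 note: firefly luciferase luminescence from reporter carrying the Shn3 3'UTR in osteoblasts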
[3] = HepG2 cell cytotoxicity, dose response, cytotoxicity control for Shn3 inhibitor project, CellTiter-Glo, cherry-picked (AID 624134); format: functional, cell-based
[4] = control 3'UTR Renilla luciferase suppression, dose response, counter-screen for Shn3 inhibitor project, cell-based, Clone20-Shn3RL, cherry-picked (AID 624133); format: functional
Protein Wnt-3a = Protein Wnt-3a (Mus musculus, UniProt P27467); test: Wnt3a-driven reporter signaling inhibition, dose response, selectivity assay for Gli-SUFU antagonist project, Wnt-LIGHT cells, luminescence (AID 651570); format: functional; conditions: read-out: IC50_Mean;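 note: Wnt-LIGHT reporter cells stimulated with conditioned medium from Wnt3a-producing cells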
Chain of Protein Wnt-3a (P27467 whole entry): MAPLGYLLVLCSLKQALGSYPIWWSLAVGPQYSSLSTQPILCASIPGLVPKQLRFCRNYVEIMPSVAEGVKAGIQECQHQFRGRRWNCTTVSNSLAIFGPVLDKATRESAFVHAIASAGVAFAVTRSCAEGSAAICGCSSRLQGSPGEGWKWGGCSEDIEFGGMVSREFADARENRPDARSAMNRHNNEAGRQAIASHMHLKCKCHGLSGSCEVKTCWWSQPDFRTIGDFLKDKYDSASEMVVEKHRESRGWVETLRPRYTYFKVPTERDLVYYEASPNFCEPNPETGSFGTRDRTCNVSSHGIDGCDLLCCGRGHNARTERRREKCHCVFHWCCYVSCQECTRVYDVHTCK

[5] = target: COUP transcription factor 2 (Homo sapiens, UniProt P24468); test: Luminescence-based cell-based high throughput dose response assay to identify inhibitors of COUP-TFII (NR2F2).; format: functional;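 note: HEK293 cells transiently cotransfected with COUP-TFII expression vector and reporter; luciferase reporter luminescence driven by COUP-TFII from the pX2-168 reporter plasmid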
Chain of COUP transcription factor 2 (P24468 whole entry): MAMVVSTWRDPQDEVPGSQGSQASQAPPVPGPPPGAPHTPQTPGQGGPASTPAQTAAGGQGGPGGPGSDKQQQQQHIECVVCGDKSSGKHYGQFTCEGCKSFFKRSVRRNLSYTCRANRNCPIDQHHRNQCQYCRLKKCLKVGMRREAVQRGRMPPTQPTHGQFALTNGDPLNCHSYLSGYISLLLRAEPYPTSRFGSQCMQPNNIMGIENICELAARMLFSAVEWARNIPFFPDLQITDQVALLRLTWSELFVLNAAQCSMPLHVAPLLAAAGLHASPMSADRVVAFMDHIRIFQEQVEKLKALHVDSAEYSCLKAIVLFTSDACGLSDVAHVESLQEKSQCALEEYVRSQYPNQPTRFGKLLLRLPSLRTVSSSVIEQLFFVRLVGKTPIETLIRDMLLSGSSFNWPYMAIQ

[6] = target: Adenosylmethionine-8-amino-7-oxononanoate aminotransferase (Mycobacterium tuberculosis, UniProt P9WQ81); test: Mycobacterium tuberculosis BioA enzyme inhibitor Measured in Biochemical System Using Plate Reader - 2163-02_Inhibitor_Dose_CherryPick_Activity.; format: functional, Mycobacterium tuberculosis UT205
Chain of Adenosylmethionine-8-amino-7-oxononanoate aminotransferase (P9WQ81 whole entry): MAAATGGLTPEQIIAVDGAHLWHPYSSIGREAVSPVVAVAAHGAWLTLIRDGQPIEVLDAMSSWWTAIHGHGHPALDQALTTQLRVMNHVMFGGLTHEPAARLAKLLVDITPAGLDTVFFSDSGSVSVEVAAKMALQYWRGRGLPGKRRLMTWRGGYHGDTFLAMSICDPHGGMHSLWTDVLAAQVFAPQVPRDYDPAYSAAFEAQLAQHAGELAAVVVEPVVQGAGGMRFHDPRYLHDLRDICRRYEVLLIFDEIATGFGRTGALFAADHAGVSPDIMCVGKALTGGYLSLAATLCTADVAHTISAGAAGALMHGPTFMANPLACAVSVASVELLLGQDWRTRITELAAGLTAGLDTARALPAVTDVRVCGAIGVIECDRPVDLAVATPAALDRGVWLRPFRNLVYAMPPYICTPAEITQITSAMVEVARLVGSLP

[7] = target: T1, Serine/threonine-protein kinase D3 (Homo sapiens, UniProt O94806); format: functional;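 note: determined within a kinase panel screen, with PRKCN as the panel member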
T1 sequence (O94806 whole entry): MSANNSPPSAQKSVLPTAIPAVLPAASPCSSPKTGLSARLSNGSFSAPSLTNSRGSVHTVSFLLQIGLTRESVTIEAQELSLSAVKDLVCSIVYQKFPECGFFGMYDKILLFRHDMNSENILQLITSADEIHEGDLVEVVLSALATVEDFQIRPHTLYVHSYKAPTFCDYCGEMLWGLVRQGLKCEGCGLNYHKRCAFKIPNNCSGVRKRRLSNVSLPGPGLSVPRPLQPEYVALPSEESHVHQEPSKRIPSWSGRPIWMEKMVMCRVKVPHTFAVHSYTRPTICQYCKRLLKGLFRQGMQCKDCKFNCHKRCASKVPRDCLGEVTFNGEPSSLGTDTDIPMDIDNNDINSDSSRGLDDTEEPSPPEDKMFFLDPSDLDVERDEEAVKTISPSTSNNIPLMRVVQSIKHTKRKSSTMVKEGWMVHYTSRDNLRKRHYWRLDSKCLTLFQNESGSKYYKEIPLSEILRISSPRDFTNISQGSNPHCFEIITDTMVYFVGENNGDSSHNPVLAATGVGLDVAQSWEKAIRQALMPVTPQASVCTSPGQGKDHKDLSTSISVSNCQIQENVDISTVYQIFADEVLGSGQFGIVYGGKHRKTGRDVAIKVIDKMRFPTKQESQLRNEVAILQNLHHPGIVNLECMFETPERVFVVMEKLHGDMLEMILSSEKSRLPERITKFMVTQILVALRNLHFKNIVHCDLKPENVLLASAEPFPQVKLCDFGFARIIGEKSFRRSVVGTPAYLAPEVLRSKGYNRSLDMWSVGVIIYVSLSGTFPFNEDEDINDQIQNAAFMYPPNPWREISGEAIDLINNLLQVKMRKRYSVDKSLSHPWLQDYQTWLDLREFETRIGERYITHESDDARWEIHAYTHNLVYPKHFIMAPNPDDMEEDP

[8] = target: Hepatocyte growth factor receptor (Homo sapiens, UniProt P08581); format: functional;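 note: kinase panel profiling across the kinome, with MET as the panel member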
Chain of Hepatocyte growth factor receptor (P08581 whole entry): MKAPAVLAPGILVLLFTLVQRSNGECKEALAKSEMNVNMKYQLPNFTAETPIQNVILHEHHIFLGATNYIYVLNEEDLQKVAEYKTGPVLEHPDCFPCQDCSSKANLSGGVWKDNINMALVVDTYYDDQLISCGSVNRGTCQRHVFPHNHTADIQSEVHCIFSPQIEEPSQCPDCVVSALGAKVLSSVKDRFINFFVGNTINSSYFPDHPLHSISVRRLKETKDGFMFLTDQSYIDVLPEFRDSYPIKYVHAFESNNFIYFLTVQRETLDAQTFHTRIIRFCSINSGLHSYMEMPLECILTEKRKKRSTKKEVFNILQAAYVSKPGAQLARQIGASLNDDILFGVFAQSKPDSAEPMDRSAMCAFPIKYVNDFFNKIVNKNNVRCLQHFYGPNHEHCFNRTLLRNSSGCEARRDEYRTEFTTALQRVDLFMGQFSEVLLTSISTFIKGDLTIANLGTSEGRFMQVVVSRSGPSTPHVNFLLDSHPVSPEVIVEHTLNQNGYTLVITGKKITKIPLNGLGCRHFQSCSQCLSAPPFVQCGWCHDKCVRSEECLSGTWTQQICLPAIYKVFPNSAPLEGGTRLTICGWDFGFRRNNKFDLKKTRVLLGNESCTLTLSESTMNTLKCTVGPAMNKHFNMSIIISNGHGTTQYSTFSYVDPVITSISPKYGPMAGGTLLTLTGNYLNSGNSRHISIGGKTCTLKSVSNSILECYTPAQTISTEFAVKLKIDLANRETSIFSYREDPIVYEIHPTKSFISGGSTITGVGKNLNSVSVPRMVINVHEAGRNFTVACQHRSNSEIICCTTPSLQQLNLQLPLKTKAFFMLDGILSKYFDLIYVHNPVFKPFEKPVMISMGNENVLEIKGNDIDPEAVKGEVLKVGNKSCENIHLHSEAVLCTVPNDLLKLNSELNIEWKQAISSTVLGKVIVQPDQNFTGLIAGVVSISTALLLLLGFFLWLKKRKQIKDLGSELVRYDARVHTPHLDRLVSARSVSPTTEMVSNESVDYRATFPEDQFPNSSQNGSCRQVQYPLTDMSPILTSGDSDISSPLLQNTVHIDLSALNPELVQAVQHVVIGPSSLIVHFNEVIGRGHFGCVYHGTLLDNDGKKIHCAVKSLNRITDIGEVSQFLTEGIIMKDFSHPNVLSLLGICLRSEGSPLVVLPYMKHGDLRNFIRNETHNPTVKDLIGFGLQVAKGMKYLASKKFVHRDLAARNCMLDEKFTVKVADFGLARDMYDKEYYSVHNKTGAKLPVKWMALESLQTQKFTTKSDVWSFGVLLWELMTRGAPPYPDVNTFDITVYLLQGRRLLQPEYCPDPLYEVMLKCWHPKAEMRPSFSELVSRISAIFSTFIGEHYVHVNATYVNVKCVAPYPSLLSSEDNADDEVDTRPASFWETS

Chain of Mitochondrial peptide methionine sulfoxide reductase (P54149 whole entry): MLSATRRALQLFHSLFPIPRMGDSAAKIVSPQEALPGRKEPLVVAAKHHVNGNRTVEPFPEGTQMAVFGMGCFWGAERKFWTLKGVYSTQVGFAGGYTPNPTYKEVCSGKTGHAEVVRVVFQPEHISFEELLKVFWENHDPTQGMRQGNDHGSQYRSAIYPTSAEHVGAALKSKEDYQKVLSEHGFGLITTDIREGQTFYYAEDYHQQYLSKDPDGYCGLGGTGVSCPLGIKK

For `COc1cc(C2C(C(=O)c3sc(C)nc3C)=C(O)C(=O)N2CCN(C)C)cc(OC)c1OC` (stereo not given), the IC50 [1] was 155 µM (inactive).

With `COc1ccc(CCNc2ncnc3c2oc2ccccc23)cc1OC` the AC50 (INS1) was 1.78 µM (active), the AC50 [2] was 0.524 µM (active) and the AC50 [3] was 3.79 µM (active). For the same molecule, the AC50 [4] was 1.89 µM (active), the IC50 (Protein Wnt-3a) was 1.07 µM (active) and the IC50 [5] was 5.03 µM (active).

With `O=C(COc1ccc2ccc(=O)oc2c1)Nc1cccnc1` the AC50 [6] was 13.6 µM (active).

With `CCCC(=O)Nc1cccc(-c2nc(Nc3ccc4[nH]ncc4c3)c3cc(OCCOC)ccc3n2)c1` the Ki [7] was 1.26 µM (active) and the Ki [8] was 2.51 µM (active).

From ChEMBL document CHEMBL1201862, “PubChem BioAssay data set” (2004)
